Assays:
xenograft = experiment: In vivo xenograft study; set-up: species or system female athymic nu/nu mice; details: as of day 26; intravenously, at 80% and at 50% of the single dose maximum tolerated dose
Description: Briefly, for run of the experiment, a previously untreated group of 8-12 week old mice was intravenously administered a test article prepared in saline and diluted to appropriate concentrations to allow administration volumes of a maximum of 20 mL/kg. Each compound of interest was tested twice: once at 80% of the maximum tolerated dose and once at 50% of the maximum tolerated (maximum tolerated doses calculated on the single dose maximum tolerated dose study).
Mice were observed daily for clinical signs and body weights were recorded daily (except on weekend days) then biweekly until the end of study. Dosing was terminated for any group in which mean weight loss exceeded 20% or >10% of animals died. Moribund animals were euthanized.

in vivo = details: for Days of Deaths (s = surviving at study end): five mice listed singly; for Day of Max. Mean Body Weight Loss (body weight nadir) / % Rx Related Deaths: once each day for ten days; for MTD at 10 days: female, SCID (HsdIcr:Ha (ICR)-Prkdc-scid), iv
Description: The purpose of this study was to determine the maximum tolerated dose for pemetrexed (PMX), Compound 20a (from Example 1), Compound 20b (from Example 1), Compound 20c (from Example 1), and Compound 20d (from Example 1) in female SCID mice fed a low folate diet. All compounds were administered intravenously, once each day, for ten consecutive days.
Calculations were made to provide “dose equivalents” between PMX, Compound 20a, Compound 20b, Compound 20c and Compound 20d, which “dose equivalents” along with the “actual dose” administered are provided in Table 2. All dosagese in this example are expressed in terms of “dose equivalents” and adjustments were made for excipients, salts and hydration state.
Female SCID mice (HsdIcr:Ha (ICR)-Prkdc-scid) were obtained from Harlan. They were seven weeks old on Day 1 of the experiment. The mice in Groups 1 and 2 were fed irradiated Rodent Diet 5053 (LabDiet™). The mice in Groups 3 through 19 were fed irradiated Folic Acid Deficient Purina TestDiet supplemented with 1% succinylsufathiazol from 14 days prior to dosing until 14 days after dosing was completed, at which time the study was terminated and the mice were then euthanized. All groups received drinking water ad libitum. Mice were housed in static cages in clean rooms that provide H.E.P.A filtered air into the environment at 100 complete air changes per hour. All treatments, body weight determinations, and tumor measurements were carried out in the environment. The environment was controlled to a temperature range of 70°±2° F. and a humidity range of 30-70%. […] Mice found in obvious distress or in a moribund condition were euthanized. The study was carried out in an AAALAC accredited facility.
Treatments began on Day 1. […] Mice in Groups 3 through 19 were fed irradiated Folic Acid Deficient Purina TestDiet with 1% Succinylsufathiazol for 14 days prior to dosing as well as throughout the entire experiment. All mice were dosed according to individual body weight on the day of treatment (0.2 ml/20 g).
Mice were weighed on each day of treatment and at least three times weekly thereafter. Individual body weights were recorded three times weekly. […] In this report, a dosage level is described as tolerated if treatment-related weight loss (during and two weeks after treatment) is <20%. Upon death or euthanasia, all mice were necropsied to provide a general assessment of potential cause of death and perhaps target organs for toxicity.

[1] = Single dose maximum tolerated dose study; type: in vivo, mice; details: single intravenous dose
Description: Because of too much efficacy of daily dosing for ten days in a pilot xenograft study (likely due to the effects of repeated dosing), a single dose maximum tolerated dose study was conducted using a method similar to that provided in Example 3 in order to have a better dosing schedule for a comparative xenograft study.

[2] = in vivo; cited from earlier work
[3] = low folate diet, 1 mg/kg/inj dose equivalents
[4] = low folate diet, 1 mg/kg, tolerated if treatment-related weight loss <20%
[5] = low folate diet, 3.75 mg/kg/inj dose equivalents
[6] = low folate diet, 3.75 mg/kg, tolerated if treatment-related weight loss <20%
[7] = low folate diet, 15 mg/kg, tolerated if treatment-related weight loss <20%
[8] = low folate diet, dosage levels found tolerated
[9] = low folate diet, dosage levels found toxic
[10] = low folate diet, intravenously once each day for ten days, 1 mg/kg/inj dose equivalents
[11] = low folate diet, intravenously once each day for ten days, 3.75 mg/kg/inj dose equivalents
[12] = low folate diet, intravenously once each day for ten days, 15 mg/kg/inj dose equivalents
[13] = low folate diet, 15 mg/kg/inj dose equivalents
[14] = low folate diet, 60 mg/kg/inj dose equivalents

Molecule: 4-arm-PEG40k-γ-amide-Pemetrexed Conjugate [Compound 20d]
- tumor volume compared with saline control (xenograft): significantly less tumor volume than saline control
- tumor volume compared with the other articles tested (xenograft): lowest tumor volumes of all articles tested
- maximum treatment-related body weight loss (in vivo; low folate diet, 1 mg/kg): 0.9%
- time to recover lost body weight (in vivo; low folate diet, 1 mg/kg): 0.8 days
- Days of Deaths (s = surviving at study end) (in vivo; [3]): s, s, s, s, s
- tolerability of the dosage level (in vivo; [4]): tolerated
- maximum treatment-related body weight loss (in vivo; low folate diet, 3.75 mg/kg): 4.5%
- time to recover lost body weight (in vivo; low folate diet, 3.75 mg/kg): 11.3 days
- Days of Deaths (s = surviving at study end) (in vivo; [5]): s, s, s, s, s
- tolerability of the dosage level (in vivo; [6]): tolerated
- maximum treatment-related body weight loss (in vivo; low folate diet, 15 mg/kg): 28.8%
- time to recover lost body weight (in vivo; low folate diet, 15 mg/kg): not recovered prior to study termination
- tolerability of the dosage level (in vivo; [7]): toxic
- common clinical signs (in vivo; [8]): Rough pelage
- necropsy findings (in vivo; [8]): Nothing significant
- common clinical signs (in vivo; [9]): Rough pelage
- necropsy findings (in vivo; [9]): Nothing significant
- Max. Mean Body Weight change during Rx (%) (in vivo; [10]): −0.9%
- Max. Mean Body Weight change during Rx (%) (in vivo; [11]): −4.5%
- Max. Mean Body Weight change during Rx (%) (in vivo; [12]): −28.8%
- Day of Max. Mean Body Weight Loss (body weight nadir) (in vivo; [3]): 5
- Day of Max. Mean Body Weight Loss (body weight nadir) (in vivo; [5]): 5
- % Rx Related Deaths (in vivo; [13]): 40%
- Day of Max. Mean Body Weight Loss (body weight nadir) (in vivo; [13]): 15
- MTD (maximum tolerated dose) (in vivo; mice fed a folate deficient diet, intravenously once each day for ten days, dose equivalents): 3.75 to 15 mg/kg
- Single dose MTD ([1]; dose equivalents, in mg/kg): ~40
- BWL (body weight loss) ([1]; tested dose (equiv) 40): −12.6%
- day (of body weight loss) ([1]; tested dose (equiv) 40): 7
- treatment-related deaths ([1]; tested dose (equiv) 40): 0
- BWL (body weight loss) ([1]; tested dose (equiv) 60): −20.8%
- day (of body weight loss) ([1]; tested dose (equiv) 60): 9
- treatment-related deaths ([1]; tested dose (equiv) 60): 0
- BWL (body weight loss) ([1]; tested dose (equiv) 90): −21.4%
- day (of body weight loss) ([1]; tested dose (equiv) 90): 9
- mean day of death ([1]; tested dose (equiv) 90): 12
- treatment-related deaths ([1]; tested dose (equiv) 90): 1
- BWL (body weight loss) ([1]; tested dose (equiv) 125): −21.8%
- day (of body weight loss) ([1]; tested dose (equiv) 125): 6
- mean day of death ([1]; tested dose (equiv) 125): 7
- treatment-related deaths ([1]; tested dose (equiv) 125): 5

Molecule: Nc1nc2[nH]cc(CCc3ccc(C(=O)N[C@@H](CCC(=O)O)C(=O)O)cc3)c2c(=O)[nH]1 [Pemetrexed, pemetrexed]
- tumor volume compared with saline control (xenograft): significantly less tumor volume than saline control
- drug excreted unchanged in the urine [2]: 70-90%
- half-life [2]: 3.5 h
- MTD at 10 days (in vivo; mouse, in vivo, MTD (maximum tolerated dose), mice fed a folate deficient diet, intravenously once each day for ten days, dose equivalents): 1 mg/kg
- MTD at 10 days (in vivo; mouse, in vivo, maximum tolerated dose, mice fed a conventional diet, intravenously once each day for ten days): < 250 mg/kg
- maximum treatment-related body weight loss (in vivo; low folate diet, 1 mg/kg): 12.8%
- Days of Deaths (s = surviving at study end) (in vivo; [3]): s, s, s, s, s
- tolerability of the dosage level (in vivo; [4]): tolerated
- Days of Deaths (s = surviving at study end) (in vivo; [5]): s, s, s, s, s
- tolerability of the dosage level (in vivo; [6]): toxic
- tolerability of the dosage level (in vivo; [7]): toxic
- tolerability of the dosage level (in vivo; low folate diet, 60 mg/kg, tolerated if treatment-related weight loss <20%): toxic
- body weight nadir (Day) (in vivo; low folate diet, across 60, 15 and 3.75 mg/kg): 10-12
- common clinical signs (in vivo; [8]): rough pelage
- necropsy findings (in vivo; [8]): nothing significant
- common clinical signs (in vivo; [9]): rough pelage and diarrhea
- necropsy findings (in vivo; [9]): bloated, air-filled stomachs, pale livers, and necrotic intestines
- Max. Mean Body Weight change during Rx (%) (in vivo; [10]): −12.8%
- Max. Mean Body Weight change during Rx (%) (in vivo; [11]): −30.7%
- Max. Mean Body Weight change during Rx (%) (in vivo; [12]): −38.4%
- Max. Mean Body Weight change during Rx (%) (in vivo; low folate diet, intravenously once each day for ten days, 60 mg/kg/inj dose equivalents): −38.1%
- Day of Max. Mean Body Weight Loss (body weight nadir) (in vivo; [3]): 12
- % Rx Related Deaths (in vivo; low folate diet, 1 mg/kg/inj dose equivalents, 1 mg/kg): 0%
- % Rx Related Deaths (in vivo; low folate diet, 1 mg/kg/inj dose equivalents, listed as PMX, 1 mg/kg): no treatment-related mortality
- % Rx Related Deaths (in vivo; [5]): 0%
- Day of Max. Mean Body Weight Loss (body weight nadir) (in vivo; [5]): 12
- % Rx Related Deaths (in vivo; [13]): 40%
- Day of Max. Mean Body Weight Loss (body weight nadir) (in vivo; [13]): 10
- % Rx Related Deaths (in vivo; [14]): 100%
- Day of Max. Mean Body Weight Loss (body weight nadir) (in vivo; [14]): 10
- tolerability of the dosage level (in vivo; mouse, in vivo): toxic
- Lethality (in vivo; normal diet, 500 mg/kg): 100%
- MTD ([1]; mouse, in vivo, dose equivalents): 50 mg/kg
- BWL (body weight loss) ([1]; tested dose (equiv) 50): −9.7%
- day (of body weight loss) ([1]; tested dose (equiv) 50): 2
- treatment-related deaths ([1]; tested dose (equiv) 50): 0
- BWL (body weight loss) ([1]; tested dose (equiv) 80): −3.8%
- day (of body weight loss) ([1]; tested dose (equiv) 80): 2
- treatment-related deaths ([1]; tested dose (equiv) 80): 0
- BWL (body weight loss) ([1]; tested dose (equiv) 120): −4.1%
- day (of body weight loss) ([1]; tested dose (equiv) 120): 2
- treatment-related deaths ([1]; tested dose (equiv) 120): 0

From US11612662B2, “Multi-arm polymeric prodrug conjugates of pemetrexed-based compounds” (priority 2010, dated 2023)
